# Laboratory results: ChEMBL document CHEMBL1687756 (Antimicrob Agents Chemother, 2010)
# Experiments:
# [1] = Drug level in Beagle dog muscle at injected site at 5 mg/kg, sc after 6 months; type: ADME, organism-based, Canis lupus familiaris, Muscle tissue; design: dose 5 mg/kg, route subcutaneous; conditions: read-out: Drug uptake
# [2] = Plasma concentration in male Beagle dog at 400 mg/kg, sc after 1 month; type: ADME, organism-based, Canis lupus familiaris; design: dose 400 mg/kg, route subcutaneous
# [3] = Tmax in male dog at 400 mg administered intramuscularly after 29 days; conditions: in vivo, im
# [4] = Drug level in Beagle dog skin at injected site at 5 mg/kg, sc after 3 months; type: ADME, organism-based, Canis lupus familiaris, Zone of skin; design: dose 5 mg/kg, route subcutaneous; conditions: read-out: Drug uptake
# [5] = Drug level in Beagle dog skin at non-injected site at 5 mg/kg administered intramuscularly after 6 months; type: ADME, organism-based, Canis lupus familiaris, Zone of skin; design: dose 5 mg/kg, route intramuscular; conditions: im, read-out: Drug uptake
# [6] = AUC (0 to last) in male dog at 400 mg administered intramuscularly after 29 days; conditions: plasma, im
# Canis familiaris [7] = assay: Toxicity in Beagle dog assessed as white deposits at 20 mg/kg, sc after 3 months; type: organism-based, Canis lupus familiaris; design: dose 20 mg/kg, route subcutaneous; conditions: in vivo, 2191.5 h
# [8] = Tmax in male dog at 400 mg administered intramuscularly after 85 days; conditions: in vivo, im
# [9] = AUC (0 to last) in Beagle dog at 5 mg/kg, sc after 176 days; type: ADME, organism-based, Canis lupus familiaris; design: time 0 - last, dose 5 mg/kg, route subcutaneous; conditions: plasma
# [10] = Ratio of drug level in spleen to plasma in male Beagle dog at 200 mg/kg, sc after 1 month; type: ADME, organism-based, Canis lupus familiaris; design: dose 200 mg/kg, route subcutaneous
# [11] = Ratio of drug level in thymus to plasma in male Beagle dog at 200 mg/kg, sc after 1 month; type: ADME, organism-based, Canis lupus familiaris; design: dose 200 mg/kg, route subcutaneous
# [12] = Ratio of drug level in thymus to plasma in male Beagle dog at 400 mg/kg administered intramuscularly after 3 months; type: ADME, organism-based, Canis lupus familiaris; design: dose 400 mg/kg, route intramuscular; conditions: im
# [13] = Ratio of drug level in spleen to plasma in female Beagle dog at 400 mg/kg administered intramuscularly after 3 months; type: ADME, organism-based, Canis lupus familiaris; design: dose 400 mg/kg, route intramuscular; conditions: im
# [14] = Drug level in male Beagle dog spleen at 200 mg/kg, sc after 1 month; type: ADME, organism-based, Canis lupus familiaris; design: dose 200 mg/kg, route subcutaneous; conditions: read-out: Drug uptake
# [15] = Ratio of drug level in spleen to plasma in male Beagle dog at 400 mg/kg administered intramuscularly after 1 month; type: ADME, organism-based, Canis lupus familiaris; design: dose 400 mg/kg, route intramuscular; conditions: im
# [16] = Ratio of drug level in spleen to plasma in female Beagle dog at 200 mg/kg, sc after 3 months; type: ADME, organism-based, Canis lupus familiaris; design: dose 200 mg/kg, route subcutaneous
# [17] = Drug level in male Beagle dog thymus at 400 mg/kg, sc after 1 month; type: ADME, organism-based, Canis lupus familiaris; design: dose 400 mg/kg, route subcutaneous; conditions: read-out: Drug uptake
# [18] = Plasma concentration in Beagle dog at 5 mg/kg administered intramuscularly after 1 month; type: ADME, organism-based, Canis lupus familiaris; design: dose 5 mg/kg, route intramuscular; conditions: im
# [19] = Drug level in Beagle dog lymph node iliac at 5 mg/kg, sc after 3 months; type: ADME, organism-based, Canis lupus familiaris; design: dose 5 mg/kg, route subcutaneous; conditions: read-out: Drug uptake
# [20] = Plasma concentration in Beagle dog at 5 mg/kg, sc after 6 months; type: ADME, organism-based, Canis lupus familiaris; design: dose 5 mg/kg, route subcutaneous
# [21] = Absolute bioavailability in Beagle […] at 5 mg/kg administered intramuscularly after 176 days; type: ADME, organism-based, Canis lupus familiaris; conditions: in vivo, im
# [22] = Drug level in female Beagle dog spleen at 400 mg/kg administered intramuscularly after 3 months; type: ADME, organism-based, Canis lupus familiaris; design: dose 400 mg/kg, route intramuscular; conditions: im, read-out: Drug uptake
# [23] = Drug level in Beagle dog lymph node popliteal at 5 mg/kg, sc after 3 months; type: ADME, organism-based, Canis lupus familiaris; design: dose 5 mg/kg, route subcutaneous; conditions: read-out: Drug uptake
# [24] = Plasma concentration in female Beagle dog at 400 mg/kg, sc after 3 months; type: ADME, organism-based, Canis lupus familiaris; design: dose 400 mg/kg, route subcutaneous
# [25] = Drug level in Beagle dog lymph node mandibular at 5 mg/kg administered intramuscularly after 3 months; type: ADME, organism-based, Canis lupus familiaris; design: dose 5 mg/kg, route intramuscular; conditions: im, read-out: Drug uptake
# Canis familiaris [26] = assay: Toxicity in Beagle dog assessed as white deposits at 20 mg/kg administered intramuscularly after 3 months; type: organism-based, Canis lupus familiaris; design: dose 20 mg/kg, route intramuscular; conditions: in vivo, im, 2191.5 h
# [27] = Ratio of drug level in thymus to plasma in male Beagle dog at 200 mg/kg, sc after 3 months; type: ADME, organism-based, Canis lupus familiaris; design: dose 200 mg/kg, route subcutaneous
# [28] = Drug level in Beagle dog skin at non-injected site at 5 mg/kg, sc after 3 months; type: ADME, organism-based, Canis lupus familiaris, Zone of skin; design: dose 5 mg/kg, route subcutaneous; conditions: read-out: Drug uptake
# [29] = Ratio of drug level in lymph node mandibular to plasma in Beagle dog at 5 mg/kg, sc after 3 months; type: ADME, organism-based, Canis lupus familiaris; design: dose 5 mg/kg, route subcutaneous
# Canis familiaris [30] = assay: Toxicity in Beagle dog assessed as untoward effects at 20 mg/kg, sc; type: organism-based, Canis lupus familiaris; design: dose 20 mg/kg, route subcutaneous; conditions: in vivo
# [31] = Drug level in Beagle dog skin at injected site at 5 mg/kg, sc after 6 months; type: ADME, organism-based, Canis lupus familiaris, Zone of skin; design: dose 5 mg/kg, route subcutaneous; conditions: read-out: Drug uptake
# [32] = Tmax in Beagle dog at 5 mg/kg administered intramuscularly after 176 days; type: ADME, organism-based, Canis lupus familiaris; design: dose 5 mg/kg, route intramuscular; conditions: in vivo, im
# [33] = Cmax in female dog at 200 mg, sc after 85 days; conditions: in vivo
# [34] = Drug level in Beagle dog skin at non-injected site at 5 mg/kg administered intramuscularly after 3 months; type: ADME, organism-based, Canis lupus familiaris, Zone of skin; design: dose 5 mg/kg, route intramuscular; conditions: im, read-out: Drug uptake
# [35] = Ratio of drug level in liver to plasma in Beagle dog at 5 mg/kg, sc after 6 months; type: ADME, organism-based, Canis lupus familiaris; design: dose 5 mg/kg, route subcutaneous
# [36] = Drug level in Beagle dog lymph node mandibular at 5 mg/kg administered intramuscularly after 6 months; type: ADME, organism-based, Canis lupus familiaris; design: dose 5 mg/kg, route intramuscular; conditions: im, read-out: Drug uptake
# [37] = Drug level in male Beagle dog spleen at 400 mg/kg administered intramuscularly after 1 month; type: ADME, organism-based, Canis lupus familiaris; design: dose 400 mg/kg, route intramuscular; conditions: im, read-out: Drug uptake
# [38] = Drug level in Beagle dog lymph node popliteal at 5 mg/kg administered intramuscularly after 3 months; type: ADME, organism-based, Canis lupus familiaris; design: dose 5 mg/kg, route intramuscular; conditions: im, read-out: Drug uptake
# [39] = Ratio of drug level in lymph node popliteal to plasma in Beagle dog at 5 mg/kg, sc after 6 months; type: ADME, organism-based, Canis lupus familiaris; design: dose 5 mg/kg, route subcutaneous
# [40] = Plasma concentration in male Beagle dog at 200 mg/kg, sc after 3 months; type: ADME, organism-based, Canis lupus familiaris; design: dose 200 mg/kg, route subcutaneous
# [41] = Drug level in Beagle dog lymph node iliac at 5 mg/kg administered intramuscularly after 6 months; type: ADME, organism-based, Canis lupus familiaris; design: dose 5 mg/kg, route intramuscular; conditions: im, read-out: Drug uptake
# [42] = Cmax in Beagle dog at 5 mg/kg administered intramuscularly after 176 days; type: ADME, organism-based, Canis lupus familiaris; design: dose 5 mg/kg, route intramuscular; conditions: in vivo, im
# [43] = Absolute bioavailability in Beagle dog at 5 mg/kg, sc after 176 days; type: ADME, organism-based, Canis lupus familiaris; conditions: in vivo
# [44] = Drug level in Beagle dog lymph node popliteal at 5 mg/kg, sc after 6 months; type: ADME, organism-based, Canis lupus familiaris; design: dose 5 mg/kg, route subcutaneous; conditions: read-out: Drug uptake
# [45] = Plasma concentration in male Beagle dog at 400 mg/kg administered intramuscularly after 3 months; type: ADME, organism-based, Canis lupus familiaris; design: dose 400 mg/kg, route intramuscular; conditions: im
# [46] = Drug level in female Beagle dog thymus at 400 mg/kg administered intramuscularly after 3 months; type: ADME, organism-based, Canis lupus familiaris; design: dose 400 mg/kg, route intramuscular; conditions: im, read-out: Drug uptake
# [47] = Ratio of drug level in thymus to plasma in female Beagle dog at 400 mg/kg, sc after 1 month; type: ADME, organism-based, Canis lupus familiaris; design: dose 400 mg/kg, route subcutaneous
# [48] = Plasma concentration in Beagle dog at 5 mg/kg, sc after 3 months; type: ADME, organism-based, Canis lupus familiaris; design: dose 5 mg/kg, route subcutaneous
# [49] = Drug level in female Beagle dog thymus at 200 mg/kg administered intramuscularly after 3 months; type: ADME, organism-based, Canis lupus familiaris; design: dose 200 mg/kg, route intramuscular; conditions: im, read-out: Drug uptake
# [50] = Ratio of drug level in thymus to plasma in female Beagle dog at 400 mg/kg administered intramuscularly after 3 months; type: ADME, organism-based, Canis lupus familiaris; design: dose 400 mg/kg, route intramuscular; conditions: im
# [51] = Ratio of drug level in lymph node axillar to plasma in Beagle dog at 5 mg/kg, sc after 3 months; type: ADME, organism-based, Canis lupus familiaris; design: dose 5 mg/kg, route subcutaneous; conditions: axillary lymph node/plasma
# [52] = AUC (0 to last) in male dog at 400 mg administered intramuscularly after 85 days; conditions: plasma, im
# [53] = Ratio of drug level in lymph node iliac to plasma in Beagle dog at 5 mg/kg, sc after 1 month; type: ADME, organism-based, Canis lupus familiaris; design: dose 5 mg/kg, route subcutaneous
# [54] = Drug level in Beagle dog thymus at 5 mg/kg administered intramuscularly after 6 months; type: ADME, organism-based, Canis lupus familiaris; design: dose 5 mg/kg, route intramuscular; conditions: im, read-out: Drug uptake
# [55] = Drug level in female Beagle dog thymus at 200 mg/kg administered intramuscularly after 1 month; type: ADME, organism-based, Canis lupus familiaris; design: dose 200 mg/kg, route intramuscular; conditions: im, read-out: Drug uptake
# [56] = Drug level in male Beagle dog thymus at 200 mg/kg, sc after 1 month; type: ADME, organism-based, Canis lupus familiaris; design: dose 200 mg/kg, route subcutaneous; conditions: read-out: Drug uptake
structure (smiles),measurement,setting,value
Cc1cc(/C=C/C#N)cc(C)c1Nc1ccnc(Nc2ccc(C#N)cc2)n1 [RILPIVIRINE],concentration at 4383 h,[1],48 ng/g
same,concentration at 730.5 h,[2],209 ng/mL
same,Tmax,[3],17 h
same,concentration at 2191.5 h,[4],223000 ng/g
same,concentration at 4383 h,[5],6.7 ng/g
same,AUC(0-t) at 696 h,[6],188 µg·h/mL
same,Activity,Canis familiaris [7],Non-toxic
same,Tmax,[8],17 h
same,AUC(0-t) at 4224 h,[9],19.7 µg·h/mL
same,Kp at 730.5 h,[10],2
same,Kp at 730.5 h,[11],6
same,Kp at 2191.5 h,[12],3.9
same,Kp at 2191.5 h,[13],2.3
same,concentration at 730.5 h,[14],189 ng/g
same,Kp at 730.5 h,[15],2.2
same,Kp at 2191.5 h,[16],1.9
same,concentration at 730.5 h,[17],606 ng/g
same,concentration at 730.5 h,[18],11.3 ng/mL
same,concentration at 2191.5 h,[19],16.9 ng/g
same,concentration at 4383 h,[20],1.3 ng/mL
same,bioavailability,[21],102%
same,concentration at 2191.5 h,[22],46.1 ng/g
same,concentration at 2191.5 h,[23],26.8 ng/g
same,concentration at 2191.5 h,[24],36 ng/mL
same,concentration at 2191.5 h,[25],10 ng/g
same,Activity,Canis familiaris [26],Non-toxic
same,Kp at 2191.5 h,[27],5.9
same,concentration at 2191.5 h,[28],24.2 ng/g
same,Kp at 2191.5 h,[29],4
same,Activity,Canis familiaris [30],Non-toxic
same,concentration at 4383 h,[31],143000 ng/g
same,Tmax,[32],0.5 h
same,Cmax,[33],191 ng/mL
same,concentration at 2191.5 h,[34],12.4 ng/g
same,Kp at 4383 h,[35],24
same,concentration at 4383 h,[36],6.9 ng/g
same,concentration at 730.5 h,[37],347 ng/g
same,concentration at 2191.5 h,[38],13.7 ng/g
same,Kp at 4383 h,[39],4.3
same,concentration at 2191.5 h,[40],15.2 ng/mL
same,concentration at 4383 h,[41],10.7 ng/g
same,Cmax,[42],619 ng/mL
same,bioavailability,[43],80%
same,concentration at 4383 h,[44],5.5 ng/g
same,concentration at 2191.5 h,[45],22.1 ng/mL
same,concentration at 2191.5 h,[46],109 ng/g
same,Kp at 730.5 h,[47],5
same,concentration at 2191.5 h,[48],3.3 ng/mL
same,concentration at 2191.5 h,[49],27.4 ng/g
same,Kp at 2191.5 h,[50],4.9
same,Kp at 2191.5 h,[51],6.8
same,AUC(0-t) at 2040 h,[52],281 µg·h/mL
same,Kp at 730.5 h,[53],3.9
same,concentration at 4383 h,[54],7.2 ng/g
same,concentration at 730.5 h,[55],353 ng/g
same,concentration at 730.5 h,[56],576 ng/g
